Data as given in patent US20200179479A1, “INHIBITION OF ALPHA5BETA1 INTEGRIN WITH ATN-161 AS A NOVEL THERAPY FOR VASCULAR DEMENTIA” (University of Kentucky Research Foundation, priority 2018, published 2020).
“Also recorded” adds a separate entry of the source.

How the values were obtained:
integrin α5β1 [1] = target: T1, integrin α5β1 (Mus musculus, UniProt P09055+P11688); assay: Immunohistochemistry of integrin α5β1 (CD49e) in stroked brain; assay type: in vivo; conditions: 1 mg/kg IP x3; mean±SD, n=7; Vehicle 308484±53485; p=0.0835
T1 construct: Animals received an IP injection of either Vehicle (sterile PBS) or ATN-161; from tissue; host or cells: living mouse; brain / cerebrovasculature
T1 sequence (P11688 45-898 limits assumed): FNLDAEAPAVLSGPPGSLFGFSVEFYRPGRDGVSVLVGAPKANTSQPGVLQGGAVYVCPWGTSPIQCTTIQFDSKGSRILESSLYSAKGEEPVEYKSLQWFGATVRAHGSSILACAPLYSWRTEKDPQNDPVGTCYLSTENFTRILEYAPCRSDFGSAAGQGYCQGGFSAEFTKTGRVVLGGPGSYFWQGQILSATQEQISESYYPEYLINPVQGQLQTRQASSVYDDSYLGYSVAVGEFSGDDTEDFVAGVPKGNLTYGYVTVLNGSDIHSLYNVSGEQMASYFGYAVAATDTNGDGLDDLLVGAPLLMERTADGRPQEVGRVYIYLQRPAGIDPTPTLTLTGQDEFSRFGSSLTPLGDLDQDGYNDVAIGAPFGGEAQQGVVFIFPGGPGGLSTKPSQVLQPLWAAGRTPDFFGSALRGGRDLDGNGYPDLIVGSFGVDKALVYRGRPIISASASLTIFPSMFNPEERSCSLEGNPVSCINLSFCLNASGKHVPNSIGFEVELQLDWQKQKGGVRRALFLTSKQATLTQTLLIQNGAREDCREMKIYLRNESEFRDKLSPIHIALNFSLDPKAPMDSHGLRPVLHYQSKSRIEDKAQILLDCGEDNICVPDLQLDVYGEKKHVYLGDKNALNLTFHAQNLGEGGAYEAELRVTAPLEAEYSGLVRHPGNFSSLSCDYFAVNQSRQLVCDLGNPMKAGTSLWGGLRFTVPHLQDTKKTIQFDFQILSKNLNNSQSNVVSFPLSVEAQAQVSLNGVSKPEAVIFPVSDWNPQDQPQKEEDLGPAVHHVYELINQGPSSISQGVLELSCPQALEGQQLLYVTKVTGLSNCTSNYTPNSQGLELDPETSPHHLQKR
T1 sequence (P11688 899-1053 limits assumed): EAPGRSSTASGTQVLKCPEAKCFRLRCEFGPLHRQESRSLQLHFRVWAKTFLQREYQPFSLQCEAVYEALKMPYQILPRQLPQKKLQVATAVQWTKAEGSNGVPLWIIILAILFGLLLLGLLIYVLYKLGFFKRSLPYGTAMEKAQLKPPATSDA
T1 sequence (P09055 21-798): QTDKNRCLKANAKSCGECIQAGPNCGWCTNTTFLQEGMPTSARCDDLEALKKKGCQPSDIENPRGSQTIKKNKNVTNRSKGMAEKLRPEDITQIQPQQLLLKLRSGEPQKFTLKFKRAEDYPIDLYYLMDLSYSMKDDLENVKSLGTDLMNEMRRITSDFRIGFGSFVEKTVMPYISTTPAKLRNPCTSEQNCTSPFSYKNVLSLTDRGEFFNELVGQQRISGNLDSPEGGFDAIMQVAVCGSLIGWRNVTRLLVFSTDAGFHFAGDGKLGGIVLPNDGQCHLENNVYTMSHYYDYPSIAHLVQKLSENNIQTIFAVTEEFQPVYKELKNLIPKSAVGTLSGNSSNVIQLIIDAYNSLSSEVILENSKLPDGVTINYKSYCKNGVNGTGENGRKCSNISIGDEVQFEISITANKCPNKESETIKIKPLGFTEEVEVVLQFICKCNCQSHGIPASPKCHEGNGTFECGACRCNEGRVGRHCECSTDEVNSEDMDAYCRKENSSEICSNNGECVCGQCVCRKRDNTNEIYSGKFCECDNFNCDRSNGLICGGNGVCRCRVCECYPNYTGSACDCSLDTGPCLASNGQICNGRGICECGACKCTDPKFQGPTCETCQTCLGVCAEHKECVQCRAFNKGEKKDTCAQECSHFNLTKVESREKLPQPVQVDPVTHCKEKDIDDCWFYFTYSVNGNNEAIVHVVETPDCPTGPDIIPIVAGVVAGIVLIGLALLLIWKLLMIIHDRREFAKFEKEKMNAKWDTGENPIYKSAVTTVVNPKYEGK
Procedure: (§1) On PSD3, animals were systemically perfused with PBS (Phosphate Buffered Solution, 1×) for 5 minutes. Brains were removed, flash frozen in liquid nitrogen, and stored at −20 C until use. The brains were coronally sectioned by cryostat at 20 μm and mounted (four per slide, 2 mm separating each section) for staining. Negative controls (no primary antibody) were run in tandem with each target to determine thresholding values.
(§2) Sections were fixed in methanol:acetone (1:1), followed by blocking buffer (5% bovine serum albumin (Fisher Scientific) in PBS with 0.1% Triton-X). Sections were incubated in primary antibody overnight at 4 C (anti-rabbit PECAM at 1:100, Fisher Scientific; anti-rat CD49e at 1:250, BD Pharminagen; anti-rat CD45 at 1:200, ThermoFisher Scientific, anti-rabbit Claudin-5 at 1:200, Abcam, anti-rabbit MMP-9 at 1:100, Abcam, and anti-rabbit fibronectin at 1:100, Abcam). Sections were washed and placed in fluorophore-conjugated secondary antibody, followed by NucBlue cell nucleus counterstain (Fisher Scientific) at room temperature (Vector Labs, 1:250), then cover slipped (Vector Labs) and imaged on a Nikon Eclipse Ti and software (Nikon, Melville, N.Y., USA). Image J was used to quantify all Immunofluorescence positive pixels. CD45: One 4× image per all four sections were taken and averaged. […]

integrin α5β1 [2] = target: T1, integrin α5β1; assay: 11-point behavioral Neuroscore after experimental ischemic stroke; assay type: in vivo; conditions: vs Vehicle
Procedure: (§3) Mice underwent transient tandem ipsilateral common carotid artery/middle cerebral artery (CCA/MCA) occlusion for 60 minutes as previously published, followed by reperfusion for 1-3 days. Briefly, a small burr hole is created directly over the M2 branch of the MCA, and a 0.0005 inch metal filament is placed under the artery on both sides of the burr hole. The CCA was then isolated and occluded using an aneurysm clip. Blood flow was determined with the Laser Doppler Perfusion Monitor (Perimed, Ardmore, Pa., USA). Animals that received less than 80% occlusion rate from baseline (i.e. pre-occlusion) were excluded from analysis. Sham animals underwent the listed procedure without vascular occlusion. All mice were allowed to recover to post-stroke day (PSD)3, during which daily body weights were measured.
Animals received an IP injection of either Vehicle (sterile PBS) or ATN-161 (lmg/kg, Medkoo Biosciences, Morrisville, N.C., USA) immediately after reperfusion, PSD1 and on PSD2. Ischemic stroke was confirmed on 2 mm sections stained with […] (TTC; BD, Sparks, M D, USA) or Magnetic Resonance Imaging on PSD3. Accounting for edema volume, infarct size based on TTC images was analyzed with Image J (NH) software as: […]

integrin α5β1 [3] = target: T1, integrin α5β1; assay: MRI (ADC and T2-weighted) infarct and edema volume after experimental ischemic stroke; assay type: in vivo
Procedure: as §3
Animals received an IP injection of either Vehicle (sterile PBS) or ATN-161 (lmg/kg, Medkoo Biosciences, Morrisville, N.C., USA) immediately after reperfusion, PSD1 and on PSD2. […] Accounting for edema volume, infarct size based on TTC images was analyzed with Image J (NH) software as:
PSD3 animals were anesthetized with isoflurane and placed on a heated bed where body temperature and breathing rate were carefully monitored throughout the scan. […] All images were analyzed with ITK-SNAP (www.itksnap.org) by a blinded, independent neuroradiologist. […]

IL-1β = assay: qPCR of ipsilateral cortex at PSD3, IL-1β; assay type: in vivo, mouse; conditions: relative to sham; mean±SD, n=7; Sham 1.023±0.1666, Vehicle 27.04±19.96
Procedure: (§4) On PSD3, brains were removed and sectioned at 2 mm where the ipsilateral cortical tissue and corresponding contralateral cortical tissue were isolated. All sections per animal were combined and homogenized in Trizol (Life Technologies). RNA extraction was performed according to the RNA extraction kit provided by the manufacturer (Life Technologies). RNA was converted to cDNA using a high capacity cDNA reverse transcriptase kit (Applied Bioscience, Grand Island, N.Y., USA). 18S (control; Mm03928990_g1), collagen IV (Mm00483669_m1), IL-1β (Mm00434228_m1), CXCL12 (Mm00445553_m1), and MMP9 (Mm00442991_m1) Taqman genes were analyzed using Real-time PCR (ViiA7, Life Technologies). Data was analyzed as fold change comparing vehicle and ATN-161 treated mice as a % control (sham).

collagen IV = assay: qPCR of ipsilateral cortex at PSD3, collagen IV; assay type: in vivo, mouse; conditions: relative to sham; mean±SD, n=8; Sham 1.018±0.1573, Vehicle 0.3543±0.1013
Procedure: as §4

GFAP = assay: BCAS mouse model, GFAP (astrocyte marker) staining in striatum; assay type: in vivo; conditions: 14 days, striatum/white matter, 1 mg/kg i.p. after surgery and days 2, 4, 6, 8, 10, 12, n=4
Procedure: Representative images within the striatum of GFAP (astrocyte marker) staining in BCAS animals treated with ATN-161 (1 mg/kg; i.p.); treatment immediately after surgery and on post-stenosis days 2, 4, 6, 8, 10, 12. ATN-161: n=4
Quantification of GFAP-positive pixel density. **p≤0.01 compared to sham group.
(§5) Mice (WT, α5KO, DB) are subjected to either sham or BCAS (0.18 mm ID coils) surgery. Euthanasia and brain tissue extraction, and processing for immunohistochemistry or western blot analysis (see below) will occur at early (14 days) or late (30 and 60 days) time points following BCAS. This will allow correlation of α5β1 integrin expression levels with the progression of brain injury over time, whether it could potentially contribute to this pathology early and/or late, and determine whether this is influenced by the diabetic phenotype prior to overt cerebrovascular pathology.

MMP-9 [4] = assay: Immunohistochemical staining of MMP-9 in stroked brain; assay type: in vivo, mouse; conditions: mean±SD, n=7
Procedure: as §1, §2

IgG = IgG immunohistochemistry (BBB permeability, IgG extravasation) in stroked brain; assay type: in vivo, mouse; conditions: PSD3; 1 mg/kg IP x3; mean±SD, n=8; Vehicle 70125±53485
Procedure: as §1
Sections were fixed in 10% phosphate-buffered formalin. After washing, IgG 568 biotinylated antibody (1:500, Thermo-Fisher Scientific) in 1% bovine serum albumin was applied to the tissue for 2 hours. Slides were then cover slipped (Vector Labs) for imaging on a Nikon Eclipse Ti and software (Nikon, Melville, N.Y., USA). Image J was used to isolate and count IgG positive pixels. Three separate 20× images per core region were taken per section and averaged.

[5] = Phase I and II clinical oncology studies, 1 mg/kg 10-minute infusions: dry mouth, cellulitis, paresthesia in one out of four patients; cited from earlier work
CXCL12 = assay: qPCR of ipsilateral cortex at PSD3, CXCL12; assay type: in vivo, mouse; conditions: relative to sham; mean±SD, n=8; Sham 1.015±0.1964, Vehicle 0.5271±0.1779
Procedure: as §4

MMP-9 [6] = assay: qPCR of ipsilateral cortex at PSD3, MMP-9; assay type: in vivo, mouse; conditions: relative to sham; mean±SD, n=7; Sham 1.018±0.1759, Vehicle 6.761±5.321
Procedure: as §4

α5β1 integrin [7] = target: T2, α5β1 integrin (Mus musculus, UniProt P09055+P11688); assay: BCAS mouse model, α5 staining in cortex; assay type: in vivo; conditions: 14 days, 1 mg/kg i.p. after surgery and every other day to day 12, n=4, preliminary data
T2 construct: Mice (WT, α5KO, DB) are subjected to either sham or BCAS (0.18 mm ID coils) surgery; from tissue; host or cells: living mouse; brain (cortex)
T2 sequence (P11688 45-898 limits assumed): as the sequence (P11688 45-898 limits assumed) above
T2 sequence (P11688 899-1053 limits assumed): as the sequence (P11688 899-1053 limits assumed) above
T2 sequence (P09055 21-798): as the sequence (P09055 21-798) above
Procedure: Representative images within the cortex of α5 staining in BCAS animals treated with ATN-161 (1 mg/kg; i.p.). ATN-161 n=4
Quantification of α5-positive pixel density. ***p≤0.001 compared to sham group.
as §5

Claudin-5 = assay: Immunofluorescence of Claudin-5 in stroked brain; assay type: in vivo, mouse; conditions: mean±SD, n=6; Vehicle 19830±5538
Procedure: as §1, §2

α5β1 integrin [8] = target: T2, α5β1 integrin; assay: BCAS mouse model, y-maze % spontaneous alternation; assay type: in vivo; conditions: post-stenosis day 14, 1 mg/kg i.p. after surgery and days 2, 4, 6, 8, 10, 12, n=4
Procedure: On post-stenosis day 14, mice underwent y-maze testing and % spontaneous alternation (working memory) was quantified. BCAS animals were treated with vehicle or ATN-161 (1 mg/kg; i.p.) treatment immediately after surgery and on post-stenosis days 2, 4, 6, 8, 10, 12. […] Sham: n=4; BCAS: n=8; ATN-161: n=4
as §5

[9] = system: angiogenesis and tumor growth; conditions: Donate et al.; cited from earlier work
[10] = Physiological measurements (MouseOx) and body weight after reperfusion in stroked mice; assay type: in vivo, mouse
Procedure: as §3
Immediately following reperfusion, heart, rate, pulse distension, and body temperature were recorded using MouseOx (Starr Life Science, Holliston, Mass., USA). After 5 minutes, sterile PBS (Vehicle) or ATN-161 was injected via IP (as described below); mice were continually observed for 15 minutes post reperfusion.

α5β1 integrin [11] = conditions: single IP dose 24 hours after MCAO; Wu et al.; cited from earlier work
[12] = IP ATN-161 5 min after reperfusion, vs Vehicle

## Ac-PHSCN-NH2 [ATN-161]
Integrin α5β1 [1]
  Integrin α5β1 analysis at PSD3 in peri-infarct: 162166±23348 positive pixels
Integrin α5β1 [2]
  11-point Neuroscore on PSD1: no difference
Integrin α5β1 [3]; 1 mg/kg, PSD 3, n=8 vs Vehicle n=7, p≤0.05
  Infarct volume analysis of T2 weighted MRI scan following MCAo: reduces infarct volume; also recorded: decreased infarct volumes
Integrin α5β1 [3]; PSD3, 1 mg/kg IP after reperfusion, PSD1, PSD2, absent edema volume, mean±SD, n=8, Vehicle 17.9±4.677
  ADC analysis for infarct volume: 12.24±3.758
IL-1β
  qPCR IL-1β, ipsilateral cortex at PSD3: 11.89±9.235 fold change
Collagen IV
  qPCR collagen IV, ipsilateral cortex at PSD3: 0.8563±0.6898 fold change
GFAP
  inflammation (GFAP-positive pixel density, astrocyte activation) following BCAS: decreases inflammation compared to controls
MMP-9 [4]; Vehicle 189516±170441, p=0.0450
  MMP-9 positive pixels at PSD3 in the peri-infarct: 42227±180171 positive pixels
MMP-9 [4]; Vehicle 443691±220951, p=0.0734
  MMP-9 positive pixels at PSD3 in the core: 232262±68098 positive pixels
IgG
  IgG positive pixel analysis in the core: 16753±23348 positive pixels
[5]
  safety and tolerability in clinical trials: safe and well-tolerated; also recorded: limited side effects
CXCL12
  qPCR CXCL12, ipsilateral cortex at PSD3: 0.8488±0.2846 fold change
MMP-9 [6]
  qPCR MMP-9, ipsilateral cortex at PSD3: 2.757±2.401 fold change
α5β1 integrin [7]
  α5 expression (α5-positive pixel density) in cortex following BCAS: decreases α5β1 integrin expression compared to controls; also recorded: decreases α5 expression compared to controls
Claudin-5
  Claudin-5 positive pixels in the core at PSD3: 44220±19878 positive pixels
α5β1 integrin [8]
  cognitive outcome, y-maze % spontaneous alternation (working memory): improves cognitive outcome; also recorded: A positive trend is observed
[9]
  doses producing the most significant reduction in activity (angiogenesis and tumor growth): 1 to 5 mg/kg
[10]; [12]
  percent change of body temperature following reperfusion: did not show any differences
  percent change of heart rate (bpm) following reperfusion: did not show any differences
  percent change of pulse distension following reperfusion: did not show any differences
[10]; IP ATN-161, vs Vehicle
  percent change of body weight following ischemic stroke: did not show any differences

## PHSRN
α5β1 integrin [11]
  effect after rat transient MCAO: neuroprotective, proangiogenic and increased neurogenesis
